Entries after “also recorded” stand apart in the source; their conditions may differ.
Columns and labels:
[1] = Clinical plasma pharmacokinetics of NTLA-2001 components (LC-MS/MS for Lipid A and DMG-PEG2k, qRT-PCR for guide RNA and mRNA); type: in vivo, human; conditions: for plasma concentration-time profile: following single IV infusion of NTLA-2001, interim
From the text: Plasma pharmacokinetic methods were developed and validated to quantify 4 components of NTLA-2001: ionizable Lipid A (also referred to as LP01), DMG-PEG2k lipid, guide RNA, and mRNA. Lipid A and DMG-PEG2k are quantified by liquid chromatography with tandem mass spectrometry (LC-MS/MS) method. Assay signal [ratio of area under the curve of reference standard over internal standard (IS, using isotopic labelled reference standard)] vs. Concentration response standard curve is used. QCs and unknown sample signal are interpolated from standard curve to determine plasma concentrations. Both guide RNA and mRNA are quantified by qRT-PCR. Signal Cycle Threshold (Ct) vs. Concentration standard curve is used. QCs and unknown samples were interpolated from standard curve to quantify plasma concentrations. Urine PK methods were developed and validated for Lipid A and DMG-PEG2k to characterize excretion.
Preliminary plasma PK data are available for the four components of NTLA-2001 (ionizable Lipid A, DMG-PEG2k lipid, guide RNA, and mRNA). […] FIG. 24. Data for other components not shown.

[2] = Population pharmacokinetics (POPPK) model and simulations of LP01; set-up: species or system human; conditions: interim POPPK model, 15 ATTRv-PN subjects
Method: An interim POPPK model was developed for NTLA-2001 analyte LP01 based on a published model using NONMEM software (Version 7.5.0, ICON Clinical Research LLC, Blue Vell, PA). There were 290 observations in 15 ATTRv-PN subjects for this analysis. Parameter values for this model and goodness of fit plots were determined (not shown). The relationship between body weight and the estimated elimination clearance was determined, together with the modeled linear relationship.
FIG. 26 provides the distribution of simulated AUC by weight quartile following administration of 1 mg/kg (left panel) and 80 mg (right panel) NTLA-2001. […] Likewise, following 80 mg NTLA-2001, there is again overlap of simulated LP01 AUC across weight quartiles. […] The ratio of simulated mean exposures in the 4th ([90.3-146] kg) to the 1st weight quartile ([48-71.7] kg) is 1.25 for 1 mg/kg NTLA-2001 and 0.81 for 80 mg NTLA-2001. Simulations identified NTLA-2001 80 mg as the fixed dose equivalent to 1.0 mg/kg.

half-life ([1]; human, plasma, single IV infusion of NTLA-2001 at 0.1 to 1.0 mg/kg, range across doses, preliminary, read-out: mean (% CV) terminal t1/2): 19.7 to 24.8 h
SMILES: CCCCC/C=C\C/C=C\CCCCCCCC(=O)OCC(COC(=O)CCC(OCCCCCCCC)OCCCCCCCC)COC(=O)OCCCN(CC)CC (stereo not shown) [LP01, (9Z,12Z)-3-((4,4-bis(octyloxy)butanoyl)oxy)-2-((((3-(diethylamino)propoxy)carbonyl)oxy)methyl)propyl octadeca-9,12-dienoate]
plasma concentration-time profile [1]: rapid decline from peak levels, followed by a secondary peak, and then a log-linear phase; also recorded: declines rapidly from peak and then exhibits a secondary peak and log-linear phase | plasma concentration-time profile ([1]; listed as NTLA-2001 ionizable lipid): rapid decline from peak levels followed by a secondary peak and then a log-linear phase | relationship between body weight and estimated elimination clearance [2]: less than proportional
